The source of these data is patent publication US20260158002A1, “APPLICATION OF COMPOSITION CONTAINING EDARAVONE AND DEXBORNEOL IN IMPROVING OR TREATING COGNITIVE IMPAIRMENT” (NEURODAWN PHARMACEUTICAL CO., LTD., priority 2021, published 2026).

One assay relates to primary cortical neurons. Kind of assay: Aβ1-42-induced primary cortical neuronal injury test (Luminescent Cell Viability Assay). In kind it is cell-based, rat. The note with it: single agent, pre-incubation 30 min before oligomerized Aβ1-42 50 μM, 24 h; edaravone 3.7 to 100 μM, dexborneol 1.2 to 100 μM; vs DMSO group. The method, then: A SD pregnant rat at 18 days of pregnancy was sacrificed by cervical dislocation, the uteruses of the rat were dissected, the brain of E18 fetal rat was taken out, the cerebral cortical tissue of the fetal rat was isolated into an ice-cold DMEM, the meninge and blood vessels were removed from the cortical tissue under a dissecting microscope, the cortical tissue was transferred to an ice-cold DMEM and minced (about 1 mm^3), and digested with trypsin at 37° C. for 10 min, the digestion was terminated with FBS, a Pasteur pipette was used to perform gentle pipetting and dispersing, and screening was then performed using a 200-mesh sieve. […] The cells were counted by a hemocytometer, diluted to 5×10^5 cells/ml with a complete medium, and seeded in a 96-well plate coated with PDL (100 μL/well) for culture. […]
The medium of the in vitro matured primary neurons was replaced with a complete medium containing different concentrations (1.2, 3.7, 11.1, 33.3, 100.0 μM) of edaravone (E), dexborneol (B) or an edaravone and dexborneol composition (EB), after incubation at 37° C. for 30 min, oligomerized Aβ1-42 (final concentration of 50 μM) was added, the culture was continued for 24 h, and the neuronal viability was tested. […] LUMbackground is the background reading of the cell-free medium well into which Luminescent Cell Viability Assay kit is added. […]

Assay [1] has as its system pro-inflammatory factors (TNF-α, IL-1β, etc.) and inflammatory proteins (iNOS and COX-2). The note with it: cited from earlier work.
In the next assay the test system is GABAAR receptors. As to conditions: cited from earlier work.

In the case of `CC1(C)[C@@H]2CC[C@@]1(C)[C@@H](O)C2` [dexborneol, (+)-borneol], in the assay with primary cortical neurons, the “inhibiting Aβ-induced neurotoxicity, increasing the cell viability” value is recorded as “capable of inhibiting Aβ-induced neurotoxicity in a concentration-dependent manner”. The “pro-inflammatory factors and inflammatory proteins within the brain” value in assay [1] was “reduce multiple pro-inflammatory factors (TNF-α, IL-1β, etc.) and inflammatory proteins (iNOS and COX-2) within the brain”. Moreover, the “agonism of inhibitory GABAAR receptors” value with GABAAR receptors is “can agonize inhibitory GABAAR receptors”.
